From US20120270237A9, “METHODS FOR THE IDENTIFICATION OF KINASE INTERACTING MOLECULES AND FOR THE PURIFICATION OF KINASE PROTEINS” (Cellzone AG, priority 2009, published 2012)

How the values were obtained:
Assay in all cases: Kinobeads competition binding, HL60 cell lysate
Parameters in all cases: endogenous in cells
Settings in all cases: 10 μM free compound
AAK1 = AAK1 (Homo sapiens, UniProt Q2M2I8)
Outline: (§1)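 Competition readout: iTRAQ reporter-ion peak areas (LC-MS/MS) comparing bead-bound kinase with 10 μM free compound versus 0.5% DMSO. Compound-immobilized Sepharose was incubated with HL60 lysate, 50 mg protein, 2 h, 4 °C, then washed, eluted in SDS buffer and resolved by SDS-PAGE.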

MAP3K1 = MAP3K1 (Homo sapiens, UniProt Q13233)
Outline: as §1

SLK = SLK (Homo sapiens, UniProt Q9H2G2)
SLK, sequence (Q9H2G2 whole entry): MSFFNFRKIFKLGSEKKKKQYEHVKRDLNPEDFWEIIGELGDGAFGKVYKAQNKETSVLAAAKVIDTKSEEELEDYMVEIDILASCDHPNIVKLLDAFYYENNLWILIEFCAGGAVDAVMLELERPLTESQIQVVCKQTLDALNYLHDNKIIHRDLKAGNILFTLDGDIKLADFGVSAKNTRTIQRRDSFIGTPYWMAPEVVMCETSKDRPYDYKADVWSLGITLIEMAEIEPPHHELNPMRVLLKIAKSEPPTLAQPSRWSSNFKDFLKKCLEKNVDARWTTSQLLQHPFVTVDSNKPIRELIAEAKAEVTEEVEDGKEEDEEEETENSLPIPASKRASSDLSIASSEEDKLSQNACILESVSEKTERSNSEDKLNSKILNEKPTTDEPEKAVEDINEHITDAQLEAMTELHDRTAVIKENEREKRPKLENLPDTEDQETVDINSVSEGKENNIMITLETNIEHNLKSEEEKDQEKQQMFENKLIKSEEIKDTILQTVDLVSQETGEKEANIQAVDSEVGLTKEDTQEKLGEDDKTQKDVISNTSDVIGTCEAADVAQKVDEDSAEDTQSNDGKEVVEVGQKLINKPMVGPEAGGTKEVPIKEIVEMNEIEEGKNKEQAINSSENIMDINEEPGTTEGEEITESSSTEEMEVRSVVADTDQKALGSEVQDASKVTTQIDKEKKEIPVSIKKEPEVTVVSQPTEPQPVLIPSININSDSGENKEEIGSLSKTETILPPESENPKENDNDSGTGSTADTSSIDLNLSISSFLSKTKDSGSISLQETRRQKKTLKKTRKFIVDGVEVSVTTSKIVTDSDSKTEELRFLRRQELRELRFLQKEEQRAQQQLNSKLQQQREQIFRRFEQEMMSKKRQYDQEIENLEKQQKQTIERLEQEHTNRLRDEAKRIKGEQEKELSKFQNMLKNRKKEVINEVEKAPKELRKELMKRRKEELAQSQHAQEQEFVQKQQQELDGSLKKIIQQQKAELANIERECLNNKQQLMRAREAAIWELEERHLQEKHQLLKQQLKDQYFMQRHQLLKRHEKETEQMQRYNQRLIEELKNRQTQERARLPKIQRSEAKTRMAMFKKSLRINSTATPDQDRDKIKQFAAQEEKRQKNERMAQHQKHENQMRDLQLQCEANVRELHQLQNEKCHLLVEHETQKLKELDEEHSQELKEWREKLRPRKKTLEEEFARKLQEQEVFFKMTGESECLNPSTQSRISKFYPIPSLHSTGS
Outline: as §1

CDK2 = CDK2 (Homo sapiens, UniProt P24941)
Outline: as §1

CDC2 = CDC2 (Homo sapiens, UniProt P06493)
CDC2, sequence (P06493 whole entry): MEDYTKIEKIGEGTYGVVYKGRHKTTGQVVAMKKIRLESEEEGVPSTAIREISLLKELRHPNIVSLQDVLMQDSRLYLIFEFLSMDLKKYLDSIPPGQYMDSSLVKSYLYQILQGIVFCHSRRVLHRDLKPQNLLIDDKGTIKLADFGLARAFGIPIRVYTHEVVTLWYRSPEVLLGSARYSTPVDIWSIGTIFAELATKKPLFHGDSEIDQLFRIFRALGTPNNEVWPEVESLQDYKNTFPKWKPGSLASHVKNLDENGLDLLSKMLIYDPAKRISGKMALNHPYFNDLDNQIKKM
Outline: as §1

PLK4 = PLK4 (Homo sapiens, UniProt O00444)
Outline: as §1

MST1 = target: T1, MST1 (Homo sapiens, UniProt Q13043)
T1 sequence (Q13043 1-487): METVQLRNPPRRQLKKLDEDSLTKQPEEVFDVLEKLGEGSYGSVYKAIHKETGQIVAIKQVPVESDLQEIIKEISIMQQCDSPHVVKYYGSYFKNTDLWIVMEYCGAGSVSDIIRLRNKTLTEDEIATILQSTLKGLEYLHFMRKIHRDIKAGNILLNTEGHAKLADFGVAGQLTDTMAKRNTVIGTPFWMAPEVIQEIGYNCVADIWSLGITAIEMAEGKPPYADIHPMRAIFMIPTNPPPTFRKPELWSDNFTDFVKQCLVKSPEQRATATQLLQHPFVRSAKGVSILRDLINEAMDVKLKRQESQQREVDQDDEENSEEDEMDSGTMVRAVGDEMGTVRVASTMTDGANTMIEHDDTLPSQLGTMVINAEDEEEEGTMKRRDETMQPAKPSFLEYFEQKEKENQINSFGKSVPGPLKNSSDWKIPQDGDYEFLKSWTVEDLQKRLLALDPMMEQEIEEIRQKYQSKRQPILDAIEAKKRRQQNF
Outline: as §1

MAP3K4 = MAP3K4 (Homo sapiens, UniProt Q9Y6R4)
Outline: as §1

YES = YES (Homo sapiens, UniProt P07947)
Outline: as §1

JAK1 = JAK1 (Homo sapiens, UniProt P23458)
Outline: as §1

JNK2 = JNK2 (Homo sapiens, UniProt P45984)
JNK2, sequence (P45984 whole entry): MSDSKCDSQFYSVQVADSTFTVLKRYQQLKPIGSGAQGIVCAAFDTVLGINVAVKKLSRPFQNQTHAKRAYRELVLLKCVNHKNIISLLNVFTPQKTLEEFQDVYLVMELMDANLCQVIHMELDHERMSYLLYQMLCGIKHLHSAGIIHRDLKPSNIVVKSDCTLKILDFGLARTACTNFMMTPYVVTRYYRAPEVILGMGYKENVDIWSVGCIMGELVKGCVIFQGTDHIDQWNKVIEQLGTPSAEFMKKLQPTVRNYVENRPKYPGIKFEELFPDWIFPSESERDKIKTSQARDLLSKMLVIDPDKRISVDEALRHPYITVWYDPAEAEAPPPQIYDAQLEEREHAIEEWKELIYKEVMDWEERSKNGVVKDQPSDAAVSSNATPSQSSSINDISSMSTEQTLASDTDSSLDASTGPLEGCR
Outline: as §1

Erk2 = Erk2 (Homo sapiens, UniProt P28482)
Erk2, sequence (P28482 whole entry): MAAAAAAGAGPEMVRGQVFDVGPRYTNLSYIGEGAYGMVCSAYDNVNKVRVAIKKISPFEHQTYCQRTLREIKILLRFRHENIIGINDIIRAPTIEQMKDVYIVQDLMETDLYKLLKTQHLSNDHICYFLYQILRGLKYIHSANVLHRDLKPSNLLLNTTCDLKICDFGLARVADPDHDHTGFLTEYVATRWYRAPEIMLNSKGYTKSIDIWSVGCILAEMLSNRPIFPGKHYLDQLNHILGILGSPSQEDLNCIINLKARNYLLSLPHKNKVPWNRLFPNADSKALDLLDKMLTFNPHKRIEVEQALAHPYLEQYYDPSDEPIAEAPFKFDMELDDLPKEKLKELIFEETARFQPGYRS
Outline: as §1

CK2a1 = CK2a1 (Homo sapiens, UniProt P68400)
Outline: as §1

MARK3 = MARK3 (Homo sapiens, UniProt P27448)
MARK3, sequence (P27448 whole entry): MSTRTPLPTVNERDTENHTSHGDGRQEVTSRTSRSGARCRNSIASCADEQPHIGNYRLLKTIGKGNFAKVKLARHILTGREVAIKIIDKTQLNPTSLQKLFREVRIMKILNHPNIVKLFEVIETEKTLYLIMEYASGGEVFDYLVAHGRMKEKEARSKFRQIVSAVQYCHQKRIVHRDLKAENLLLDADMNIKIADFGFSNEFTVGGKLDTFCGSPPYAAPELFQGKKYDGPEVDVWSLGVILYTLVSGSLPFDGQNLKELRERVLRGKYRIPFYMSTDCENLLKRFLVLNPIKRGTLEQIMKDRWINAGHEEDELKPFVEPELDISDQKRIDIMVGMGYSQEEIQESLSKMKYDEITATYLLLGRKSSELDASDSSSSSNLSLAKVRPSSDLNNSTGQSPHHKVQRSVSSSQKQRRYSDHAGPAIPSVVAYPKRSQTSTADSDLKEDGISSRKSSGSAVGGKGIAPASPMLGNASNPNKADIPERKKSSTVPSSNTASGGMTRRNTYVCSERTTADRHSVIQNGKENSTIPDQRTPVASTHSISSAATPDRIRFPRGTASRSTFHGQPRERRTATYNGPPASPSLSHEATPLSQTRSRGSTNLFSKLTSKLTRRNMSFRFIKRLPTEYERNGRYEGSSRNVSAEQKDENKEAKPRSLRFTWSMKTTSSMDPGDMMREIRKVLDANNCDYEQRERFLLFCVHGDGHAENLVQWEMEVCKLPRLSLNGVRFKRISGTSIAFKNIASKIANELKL
Outline: as §1

IRE1 = IRE1 (Homo sapiens, UniProt O75460)
IRE1, sequence (O75460 19-977): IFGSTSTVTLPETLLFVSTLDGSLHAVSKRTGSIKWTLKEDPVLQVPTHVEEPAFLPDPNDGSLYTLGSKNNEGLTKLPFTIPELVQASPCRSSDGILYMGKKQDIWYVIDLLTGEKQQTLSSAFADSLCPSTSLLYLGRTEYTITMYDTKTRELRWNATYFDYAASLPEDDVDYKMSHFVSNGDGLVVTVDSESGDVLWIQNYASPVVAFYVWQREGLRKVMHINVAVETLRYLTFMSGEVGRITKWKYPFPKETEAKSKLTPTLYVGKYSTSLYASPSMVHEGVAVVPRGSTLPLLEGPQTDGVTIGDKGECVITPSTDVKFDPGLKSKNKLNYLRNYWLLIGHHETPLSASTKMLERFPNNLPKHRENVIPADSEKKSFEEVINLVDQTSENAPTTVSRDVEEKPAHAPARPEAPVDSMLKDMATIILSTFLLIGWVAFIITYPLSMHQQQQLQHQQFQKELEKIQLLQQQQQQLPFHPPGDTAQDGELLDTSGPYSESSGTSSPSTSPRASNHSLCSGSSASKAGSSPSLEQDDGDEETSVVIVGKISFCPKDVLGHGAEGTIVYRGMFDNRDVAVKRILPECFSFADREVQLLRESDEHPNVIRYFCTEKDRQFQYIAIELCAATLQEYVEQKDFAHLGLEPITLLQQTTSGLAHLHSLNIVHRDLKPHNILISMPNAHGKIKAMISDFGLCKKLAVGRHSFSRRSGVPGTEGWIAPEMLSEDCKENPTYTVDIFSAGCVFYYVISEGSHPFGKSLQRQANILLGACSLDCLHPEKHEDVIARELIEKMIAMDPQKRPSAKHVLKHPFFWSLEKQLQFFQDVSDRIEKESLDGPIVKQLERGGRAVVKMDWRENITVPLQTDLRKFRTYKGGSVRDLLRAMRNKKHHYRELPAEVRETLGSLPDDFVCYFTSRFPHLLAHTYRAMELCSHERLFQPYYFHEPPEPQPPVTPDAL
Outline: as §1

AurB = AurB (Homo sapiens, UniProt Q96GD4)
Outline: as §1

AAK1, sequence (Q2M2I8 whole entry): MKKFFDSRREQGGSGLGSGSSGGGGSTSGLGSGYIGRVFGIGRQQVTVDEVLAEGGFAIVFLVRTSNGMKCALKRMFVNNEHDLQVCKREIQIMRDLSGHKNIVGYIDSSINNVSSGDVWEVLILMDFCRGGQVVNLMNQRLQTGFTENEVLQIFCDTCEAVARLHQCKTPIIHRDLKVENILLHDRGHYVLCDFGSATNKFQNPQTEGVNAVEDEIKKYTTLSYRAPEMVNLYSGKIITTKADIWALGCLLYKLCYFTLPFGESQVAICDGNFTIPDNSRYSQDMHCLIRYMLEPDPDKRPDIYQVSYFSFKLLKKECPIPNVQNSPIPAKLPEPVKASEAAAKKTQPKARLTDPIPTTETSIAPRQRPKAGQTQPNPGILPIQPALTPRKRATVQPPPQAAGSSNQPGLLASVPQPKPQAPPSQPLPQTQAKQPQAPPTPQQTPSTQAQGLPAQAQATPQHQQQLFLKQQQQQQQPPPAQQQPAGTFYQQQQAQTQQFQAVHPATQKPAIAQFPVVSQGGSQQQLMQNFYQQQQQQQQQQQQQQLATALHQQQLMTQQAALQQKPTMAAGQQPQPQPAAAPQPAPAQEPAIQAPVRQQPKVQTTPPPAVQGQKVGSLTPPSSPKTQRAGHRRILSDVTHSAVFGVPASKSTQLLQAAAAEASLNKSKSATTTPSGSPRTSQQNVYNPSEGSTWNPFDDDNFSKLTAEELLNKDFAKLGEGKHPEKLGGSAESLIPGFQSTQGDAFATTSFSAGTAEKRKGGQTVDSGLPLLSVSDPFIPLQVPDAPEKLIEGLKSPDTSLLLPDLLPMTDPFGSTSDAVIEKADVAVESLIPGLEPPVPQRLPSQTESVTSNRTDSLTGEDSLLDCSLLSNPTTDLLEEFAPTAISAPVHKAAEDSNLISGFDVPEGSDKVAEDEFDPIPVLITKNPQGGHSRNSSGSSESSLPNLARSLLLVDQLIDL

inhibition at 10 µM (AAK1): 97.8% | inhibition at 10 µM (MAP3K1): 87% | inhibition at 10 µM (SLK): 97.5% | Competition % (CDK2): 95.1% | inhibition at 10 µM (CDC2): 93.1% | inhibition at 10 µM (PLK4): 91.7% | Competition % (MST1): 97.7% | inhibition at 10 µM (MAP3K4): 97.2% | inhibition at 10 µM (YES): 91.1% | Competition % (JAK1): 97.8% | Competition % (JNK2): 87.8% | inhibition at 10 µM (Erk2): 75.8% | inhibition at 10 µM (CK2a1): 97.9% | inhibition at 10 µM (MARK3): 97.2% | inhibition at 10 µM (IRE1): 95.1% | inhibition at 10 µM (AurB): 95%
Compound: CS(=O)(=O)Nc1ccccc1Nc1nc(Nc2cccc(OCCN)c2)ncc1Cl [CZC31326, N-(2-(2-(3-(2-aminoethoxy)phenylamino)-5-chloropyrimidin-4-ylamino)phenyl)methanesulfonamide]
